The text below walks through data of patent US20260325561A1, “4'-SUBSTITUTED NUCLEOSIDES AND NUCLEOTIDES AS ANTIVIRAL AGENTS” (THE SCRIPPS RESEARCH INSTITUTE, priority 2023, published 2026).

The test system of one data set is DENV-2. As to the kind of experiment: microbe, parasite or virus in culture. Type of data set: cell-based, DENV-2 16681. The following applies: Dengue virus, DENV2, HepG2, 24 h, read-out: DENV-2 / HepG2 EC50.
The subject of a further data set is SARS-CoV-2. As to the kind of experiment: microbe, parasite or virus in culture. Type of data set: cell-based, SARS-CoV-2 strain USA-WA1/2020. The following applies: Severe acute respiratory syndrome coronavirus 2, HeLa-ACE2, 24 h, read-out: SARS-CoV-2 / HeLa-ACE2 EC50.
For the next data set, the system named is RSV A2. Kind of data set: microbe, parasite or virus in culture. Type of data set: cell-based. The following applies: human respiratory syncytial virus, HEp-2, 72 h, read-out: RSV A2 / Hep2 EC50.
A further data set relates to HRV 14. As to the kind of experiment: microbe, parasite or virus in culture. Type of data set: cell-based, Human Rhinovirus 14 strain 1059. The following applies: Rhinovirus B, H1-HeLa, 48 h, read-out: HRV / H1 HeLa B 14 EC50.
For the next data set, the system named is HRV 16. Kind of data set: microbe, parasite or virus in culture. Particulars: Rhinovirus A, H1-HeLa, 48 h, read-out: HRV / H1 HeLa A16 EC50. Type of data set: cell-based, Human Rhinovirus 16 strain 11757.
In a further data set the test system is CHIKV. As to the kind of experiment: microbe, parasite or virus in culture. Type of data set: cell-based, CHIKV strain 181/25. Particulars: Chikungunya virus, HepG2, 24 h, read-out: CHIKV / HepG2 EC50.
In the next data set the test system is HCoV-OC43. As to the kind of experiment: microbe, parasite or virus in culture. Type of data set: cell-based, Human Coronavirus. The following applies: Betacoronavirus 1, OC43, HCT-8, 48 h, read-out: HCoV-OC43/HCT-8 EC50.
A further data set relates to HCoV-229E. As to the kind of experiment: microbe, parasite or virus in culture. Type of data set: cell-based. The following applies: Human coronavirus 229E, MRC5, 120 h, read-out: HCoV-229E/MRC5 EC50.
A further data set concerns HCMV. Kind of data set: HCMV/HFF antiviral assay. Type of data set: cell-based. The following applies: Human betaherpesvirus 5, HFF.
A further data set in a line: Cytotoxicity, HFF. Type of data set: cell-based. Particulars: human, hff cells; read-out: HCMV/HFF CC50.
Data set [1] in a line: in vitro. Particulars: human, hepg2 cells.
Data set [2] can be described thus: in vitro. Particulars: human, hela-ace2 cells.
Data set [3] in a line: in vitro. The following applies: human, hep2 cells.
Data set [4] can be described thus: in vitro. Particulars: human, h1 hela cells.
Data set [5] can be described thus: in vitro. Particulars: human, hct-8 cells.
A short description of data set [6]: in vitro. Particulars: human, mrc5 cells.
The next data set has as its system ZIKV. Kind of data set: microbe, parasite or virus in culture. Type of data set: cell-based, ZIKV MR766. The following applies: Zika virus, HepG2, 24 h, read-out: ZIKV / HepG2 EC50.
The test system of a further data set is YFV. Kind of data set: microbe, parasite or virus in culture. Type of data set: cell-based, YFV strain 17D. The following applies: Yellow fever virus, HepG2, 24 h, read-out: YFV / HepG2 EC50.

On to `OC[C@@]1(F)O[C@@H](n2ccc3c(F)ncnc32)[C@H](O)[C@@H]1O` [Example 13, (2S,3S,4R,5R)-2-fluoro-5-(4-fluoro-7H-pyrrolo[2,3-d]pyrimidin-7-yl)-2-(hydroxymethyl)tetrahydrofuran-3,4-diol], for which the EC50 is < 0.1 µM with DENV-2; 0.1 to 1 µM in the data set with SARS-CoV-2; 0.1 to 1 µM in the data set with RSV A2; 1 to 10 µM in the data set with HRV 14; 0.1 to 1 µM in the data set with HRV 16; 0.1 to 1 µM with CHIKV. In addition, the figures for the EC50 with HCoV-OC43, in the data set on HCoV-229E and in the data set on HCMV were 1 to 10 µM, > 10 µM and > 10 µM, respectively. The CC50 was 10 to 99 µM in “Cytotoxicity, HFF”; 10 to 99 µM in “in vitro [3]”; 10 to 99 µM in “in vitro [4]”; 10 to 99 µM in the data set “in vitro [5]”; > 99 µM in “in vitro [6]”. In the data set “in vitro [1]”, this compound displayed a CC50 at 72 h of 1 to 10 µM. In “in vitro [2]”, this compound came in with a CC50 at 24 h of 10 to 99 µM.

Regarding `NC(=O)c1cn([C@@H]2O[C@](F)(CO)[C@@H](O)[C@H]2O)c2ncnc(N)c12` [Example 14, 4-amino-7-((2R,3R,4S,5S)-5-fluoro-3,4-dihydroxy-5-(hydroxymethyl)tetrahydrofuran-2-yl)-7H-pyrrolo[2,3-d]pyrimidine-5-carboxamide], the EC50 with DENV-2 is < 0.1 µM; with SARS-CoV-2, 0.1 to 1 µM; with RSV A2, < 0.1 µM; in the data set on HRV 14, > 10 µM; in the data set on HRV 16, > 10 µM; in the data set on HCoV-OC43, 0.1 to 1 µM. For the same compound, the EC50 in the data set on HCoV-229E was > 10 µM; in the data set with HCMV it was 0.1 to 1 µM. The CC50 in the data set “Cytotoxicity, HFF” fell in the range of 1 to 10 µM; in the data set “in vitro [3]”, 1 to 10 µM; in “in vitro [4]”, 1 to 10 µM; in the data set “in vitro [5]” it was 1 to 10 µM; in the data set “in vitro [6]” it was 1 to 10 µM. The CC50 at 72 h in “in vitro [1]” was < 1 µM. Moreover, in “in vitro [2]”, the CC50 at 24 h is < 1 µM.

Take `Nc1ncnc2c1c(F)cn2[C@@H]1O[C@](F)(CO)[C@@H](O)[C@H]1O` [Example 15, (2S,3S,4R,5R)-5-(4-amino-5-fluoro-7H-pyrrolo[2,3-d]pyrimidin-7-yl)-2-fluoro-2-(hydroxymethyl)tetrahydrofuran-3,4-diol]: the EC50 in the data set on DENV-2 is < 0.1 µM; in the data set with SARS-CoV-2 it was < 0.1 µM; with RSV A2, > 10 µM; with HRV 14 it was > 10 µM; in the data set with HRV 16, < 0.1 µM; in the data set on HCoV-OC43, < 0.1 µM. Further, the EC50 was in the range of 0.1 to 1 µM in the data set on HCoV-229E and 1 to 10 µM in the data set with HCMV. Besides, the CC50 in “Cytotoxicity, HFF” was 1 to 10 µM; in the data set “in vitro [3]”, 1 to 10 µM; in “in vitro [4]” it was < 1 µM; in the data set “in vitro [5]”, < 1 µM; in the data set “in vitro [6]” it was 1 to 10 µM. Further, in “in vitro [1]”, the CC50 at 72 h is < 1 µM. Besides, in the data set “in vitro [2]”, the CC50 at 24 h was < 1 µM.

Turning to `O=c1[nH]cnc2c1c(F)cn2[C@@H]1O[C@](F)(CO)[C@@H](O)[C@H]1O` [Example 21, 5-fluoro-7-((2R,3R,4S,5S)-5-fluoro-3,4-dihydroxy-5-(hydroxymethyl)tetrahydrofuran-2-yl)-3,7-dihydro-4H-pyrrolo[2,3-d]pyrimidin-4-one], the EC50 in the data set with DENV-2, with SARS-CoV-2, with RSV A2, with HRV 14, in the data set on HRV 16 and with ZIKV was > 10 µM in each case. Moreover, the EC50 with YFV, with HCoV-OC43 and with HCoV-229E was > 10 µM each time. In the data set “in vitro [1]”, the CC50 at 72 h was > 99 µM. In “in vitro [2]”, the CC50 at 24 h is > 99 µM. Besides, the CC50 in “in vitro [3]”, in “in vitro [4]”, in the data set “in vitro [5]” and in the data set “in vitro [6]” was > 99 µM throughout.

On to `COc1ncnc2c1c(F)cn2[C@@H]1O[C@](F)(CO)[C@@H](O)[C@H]1O` [Example 22, (2S,3S,4R,5R)-2-fluoro-5-(5-fluoro-4-methoxy-7H-pyrrolo[2,3-d]pyrimidin-7-yl)-2-(hydroxymethyl)tetrahydrofuran-3,4-diol], for which the EC50 in the data set on DENV-2 is 0.1 to 1 µM; in the data set with SARS-CoV-2 it was 1 to 10 µM; in the data set on RSV A2, > 10 µM; in the data set with HRV 14, > 10 µM; in the data set on HRV 16, > 10 µM; in the data set with ZIKV, 1 to 10 µM. Also, the values for the EC50 in the data set on YFV and in the data set with HCMV were 0.1 to 1 µM and 1 to 10 µM, respectively. Further, the CC50 was > 99 µM in “Cytotoxicity, HFF”; 10 to 99 µM in the data set “in vitro [3]”; 10 to 99 µM in “in vitro [4]”. The same compound showed a CC50 at 72 h in “in vitro [1]” of 1 to 10 µM. Also, in the data set “in vitro [2]”, the CC50 at 24 h was 1 to 10 µM.

As to `Nc1ncnc2c1c(Cl)cn2[C@@H]1O[C@](F)(CO)[C@@H](O)[C@H]1O` [Example 33, (2S,3S,4R,5R)-5-(4-amino-5-chloro-7H-pyrrolo[2,3-d]pyrimidin-7-yl)-2-fluoro-2-(hydroxymethyl)tetrahydrofuran-3,4-diol], the EC50 with DENV-2 is < 0.1 µM; in the data set on SARS-CoV-2 it was < 0.1 µM; with RSV A2, < 0.1 µM; in the data set with HRV 14, > 10 µM; with HRV 16, > 10 µM; in the data set with HCoV-OC43 it was 0.1 to 1 µM. Also, the EC50 in the data set on HCoV-229E is > 10 µM; with HCMV, 0.1 to 1 µM. The CC50 was 10 to 99 µM in “Cytotoxicity, HFF”; 10 to 99 µM in the data set “in vitro [3]”; 1 to 10 µM in “in vitro [4]”; < 1 µM in the data set “in vitro [5]”; 10 to 99 µM in “in vitro [6]”. Moreover, in the data set “in vitro [1]”, the CC50 at 72 h was < 1 µM. The same compound had a CC50 at 24 h in the data set “in vitro [2]” of 1 to 10 µM.

In the case of `CNc1ncnc2c1c(F)cn2[C@@H]1O[C@](F)(CO)[C@@H](O)[C@H]1O` [Example 35, (2S,3S,4R,5R)-2-fluoro-5-(5-fluoro-4-(methylamino)-7H-pyrrolo[2,3-d]pyrimidin-7-yl)-2-(hydroxymethyl)tetrahydrofuran-3,4-diol], the EC50 was > 10 µM in the data set with DENV-2; > 10 µM in the data set on SARS-CoV-2; > 10 µM in the data set on RSV A2; > 10 µM with HRV 14; > 10 µM in the data set with ZIKV; 1 to 10 µM in the data set on YFV. In “in vitro [1]”, the CC50 at 72 h lay within 10 to 99 µM. In addition, the CC50 at 24 h in “in vitro [2]” was > 99 µM. Besides, the CC50 in “in vitro [3]” and in the data set “in vitro [4]” was 10 to 99 µM throughout.

`CC(C)OC(=O)[C@H](C)N[P@](=O)(OC[C@@]1(F)O[C@@H](n2ccc3c(N)ncnc32)[C@H](O)[C@@H]1O)Oc1ccccc1` [Example 48, isopropyl ((S)-(((2S,3S,4R,5R)-5-(4-amino-7H-pyrrolo[2,3-d]pyrimidin-7-yl)-2-fluoro-3,4-dihydroxytetrahydrofuran-2-yl)methoxy)(phenoxy)phosphoryl)-L-alaninate]: the EC50 was in the range of 0.1 to 1 µM in the data set with DENV-2; 1 to 10 µM with SARS-CoV-2; 1 to 10 µM in the data set on HRV 14; 1 to 10 µM with HRV 16; 1 to 10 µM with ZIKV; 1 to 10 µM in the data set with YFV. Moreover, the CC50 at 72 h in “in vitro [1]” was in the range of 10 to 99 µM. In addition, the CC50 at 24 h in the data set “in vitro [2]” fell in the range of 10 to 99 µM. The CC50 in the data set “in vitro [4]” was 10 to 99 µM.
